Experimental findings from patent US8710085B2, “Pyrrolidine-1,2-dicarboxamide derivatives” (Novartis AG, priority 2008, dated 2014) are described below.

Read-outs that look alike come from different tables or passages of the source.

Assay type in all cases: biochemical
One experiment addresses T1, PI3Kα (Homo sapiens, UniProt P42336).
T1 construct: p110α(21-1068)-His; made in house; host or cells: baculovirus, Tn5 insect cells
Put plainly: PI3K KinaseGlo assay, PI3Kα.

A further experiment addresses T2, PI3Kβ (Homo sapiens, UniProt P42338).
T2 construct: p110β(2-1070)-His; made in house; host or cells: baculovirus, Tn5 insect cells
Put plainly: PI3K KinaseGlo assay, PI3Kβ. As to the method:
PI3K KinaseGlo assay: […] of compound dilutions were dispensed onto black 384-well low volume Non Binding Styrene (NBS) plates (Costar Cat. No. NBS#3676). L-a-phosphatidylinositol (PI), provided as 10 mg/ml solution in methanol, was transferred into a glass tube and dried under nitrogen beam. It was then resuspended in 3% OctylGlucoside (OG) by vortexing and stored at 4° C. The KinaseGlo Luminescent Kinase Assay (Promega, Madison/WI, USA) is a homogeneous HTS method of measuring kinase activity by quantifying the amount of ATP remaining in solution following a kinase reaction.
5 μL of a mix of PI/OG with the PI3K subtype were added (Table 1). Kinase reactions were started by addition of 5 μl of ATP-mix containing in a final volume 10 μL 10 mM TRIS-HCl pH 7.5, 3 mM MgCl2, 50 mM NaCl, 0.05% CHAPS, 1 mM DTT and 1 μM ATP, and occurred at room temperature. […] The standard was used as a reference compound and included in all assay plates in the form of 16 dilution points in duplicate.
The PI3Kα, PI3Kβ and PI3Kδ constructs are fusion of p85α iSH2 domain and the respective p110 isoforms. The p85α fragment and p110 isoform genes were generated by PCR from first strand cDNA generated by RT-PCR from commercial RNA from placenta, testis and brain as described below. The PI3Kγ construct was obtained from Roger Williams lab, MRC Laboratory of Molecular Biology, Cambridge, UK (November, 2003) and is described (Pacold, Michael E.; Suire, Sabine; Perisic, Olga; Lara-Gonzalez, Samuel; Davis, Colin T.; Walker, Edward H.; Hawkins, Phillip T.; Stephens, Len; Eccleston, John F.; Williams, Roger L. Crystal structure and functional analysis of Ras binding to its effector phosphoinositide 3-kinase gamma. Cell (2000), 103(6), 931-943).
BV949: PCR products for the inter SH2 domain (iSH2) of the p85 PI3Kα, PI13Kβ and PI3Kδ subunit and for the full-length p110β subunit were generated and fused by overlapping PCR. […] The p11013 fragment was obtained by PCR using as template a p110β clone (from unknown source that was sequence verified) using primers gwG130-p04 (5′-[…]-[…]-3′) (SEQ ID NO: 9) which contains linker sequences and the 5′ end of p110β and gwG130-p06 (5′-[…]-[…]-3′) (SEQ ID NO: 10) which contains sequences of the 3′ end of p110-β fused to a Histidine tag. […] This final product was recombined in a Gateway (Invitrogen) […] into the donor vector pDONR201 (Invitrogen) to generate the ORF253 entry clone. This clone was verified by sequencing and used in a Gateway LR reaction (Invitrogen) to transfer the insert into the Gateway adapted pBlueBac4.5 (Invitrogen) vector for generation of the baculovirus expression vector LR280.
(§1) PI3Kα, PI3Kβ and PI3Kγ were purified in two chromatographic steps: immobilized metal affinity chromatography (IMAC) on a Ni sepharose resin (GE Healthcare) and gel filtration utilizing a Superdex 200 26/60 column (GE Healthcare). All buffers were chilled to 4° C. and lysis was performed chilled on ice. Column fractionation was performed at room temperature. All buffers used to purify PI3Kβ contained 0.05% Triton X100 in addition to what is described below.
The lysate was centrifuged at 45,000 g for 30 minutes, and the supernatant was loaded onto a pre-equilibrated IMAC column (3 mL resin/100 mL lysate). […] Protein was eluted with 20 mM Tris-Cl, pH 7.5, 0.5 M NaCl, 5% glycerol, 250 mM imidazole, 1 mM NaF, 0.1 μg/mL OAA, 5 mM BME, 1× Complete protease inhibitor cocktail—EDTA-free. Pertinent fractions were analyzed by SDS-PAGE and pooled accordingly. The protein was further purified by gel filtration on a Superdex 200 26/60 column equilibrated in 20 mM Tris-Cl, pH 7.5, 0.5 M NaCl, 5% glycerol, 1 mM NaF, 5 mM DTT, 1× Complete protease inhibitor cocktail—EDTA-free. Pertinent fractions were analyzed by SDS-PAGE and pooled accordingly.

For the next experiment, the target named is T3, PI3Kδ (Homo sapiens, UniProt O00329).
T3 construct: p85iSH2(461-568)-GGGGGG-p110δ(2-1044)-His; made in house; host or cells: baculovirus, Tn5 insect cells
T3 sequence (O00329 with tags, fused parts or gaps): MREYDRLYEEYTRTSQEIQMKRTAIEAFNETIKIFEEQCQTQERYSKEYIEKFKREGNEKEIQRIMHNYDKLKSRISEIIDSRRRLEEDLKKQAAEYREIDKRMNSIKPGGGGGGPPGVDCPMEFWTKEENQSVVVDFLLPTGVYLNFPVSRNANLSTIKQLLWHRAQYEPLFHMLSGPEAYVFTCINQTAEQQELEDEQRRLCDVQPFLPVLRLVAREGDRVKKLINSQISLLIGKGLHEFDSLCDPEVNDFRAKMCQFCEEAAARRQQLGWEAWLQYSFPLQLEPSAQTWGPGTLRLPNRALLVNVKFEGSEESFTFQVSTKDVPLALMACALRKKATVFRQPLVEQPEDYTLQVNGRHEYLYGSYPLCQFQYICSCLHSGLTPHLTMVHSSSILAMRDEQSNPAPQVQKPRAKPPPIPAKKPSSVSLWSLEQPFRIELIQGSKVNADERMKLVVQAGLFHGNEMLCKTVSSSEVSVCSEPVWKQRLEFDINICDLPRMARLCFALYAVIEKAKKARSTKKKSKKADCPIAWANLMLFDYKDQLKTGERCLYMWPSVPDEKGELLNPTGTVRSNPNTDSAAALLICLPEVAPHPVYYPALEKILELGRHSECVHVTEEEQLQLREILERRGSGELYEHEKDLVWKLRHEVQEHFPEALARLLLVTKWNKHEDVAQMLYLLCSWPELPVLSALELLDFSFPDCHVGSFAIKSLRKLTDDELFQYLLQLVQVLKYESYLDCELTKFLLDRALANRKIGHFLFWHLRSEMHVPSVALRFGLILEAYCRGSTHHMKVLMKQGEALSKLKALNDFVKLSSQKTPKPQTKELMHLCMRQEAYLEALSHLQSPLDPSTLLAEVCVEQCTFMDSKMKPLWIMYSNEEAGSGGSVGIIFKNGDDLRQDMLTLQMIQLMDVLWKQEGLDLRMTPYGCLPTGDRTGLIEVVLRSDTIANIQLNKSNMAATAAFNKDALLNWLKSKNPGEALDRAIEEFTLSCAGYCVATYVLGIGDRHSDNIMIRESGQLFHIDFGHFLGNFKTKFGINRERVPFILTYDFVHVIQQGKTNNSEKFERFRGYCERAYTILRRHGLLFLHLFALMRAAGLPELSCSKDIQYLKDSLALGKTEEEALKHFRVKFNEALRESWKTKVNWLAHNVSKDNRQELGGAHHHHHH
Put plainly: PI3K KinaseGlo assay, PI3Kδ. The note with it: 10 nM enzyme, 1 μM ATP, 30 mins, room temperature, read-out: PI3Kd/IC50.

Another experiment deals with T4, PI3Kγ (Homo sapiens, UniProt P48736, Q459R).
T4 construct: p110γ(Δ143-[Met144-1102])-His; made in house; host or cells: Tn5 insect cells; construct from Roger Williams lab, MRC LMB
T4 sequence (P48736 with tags, fused parts or gaps Q459R): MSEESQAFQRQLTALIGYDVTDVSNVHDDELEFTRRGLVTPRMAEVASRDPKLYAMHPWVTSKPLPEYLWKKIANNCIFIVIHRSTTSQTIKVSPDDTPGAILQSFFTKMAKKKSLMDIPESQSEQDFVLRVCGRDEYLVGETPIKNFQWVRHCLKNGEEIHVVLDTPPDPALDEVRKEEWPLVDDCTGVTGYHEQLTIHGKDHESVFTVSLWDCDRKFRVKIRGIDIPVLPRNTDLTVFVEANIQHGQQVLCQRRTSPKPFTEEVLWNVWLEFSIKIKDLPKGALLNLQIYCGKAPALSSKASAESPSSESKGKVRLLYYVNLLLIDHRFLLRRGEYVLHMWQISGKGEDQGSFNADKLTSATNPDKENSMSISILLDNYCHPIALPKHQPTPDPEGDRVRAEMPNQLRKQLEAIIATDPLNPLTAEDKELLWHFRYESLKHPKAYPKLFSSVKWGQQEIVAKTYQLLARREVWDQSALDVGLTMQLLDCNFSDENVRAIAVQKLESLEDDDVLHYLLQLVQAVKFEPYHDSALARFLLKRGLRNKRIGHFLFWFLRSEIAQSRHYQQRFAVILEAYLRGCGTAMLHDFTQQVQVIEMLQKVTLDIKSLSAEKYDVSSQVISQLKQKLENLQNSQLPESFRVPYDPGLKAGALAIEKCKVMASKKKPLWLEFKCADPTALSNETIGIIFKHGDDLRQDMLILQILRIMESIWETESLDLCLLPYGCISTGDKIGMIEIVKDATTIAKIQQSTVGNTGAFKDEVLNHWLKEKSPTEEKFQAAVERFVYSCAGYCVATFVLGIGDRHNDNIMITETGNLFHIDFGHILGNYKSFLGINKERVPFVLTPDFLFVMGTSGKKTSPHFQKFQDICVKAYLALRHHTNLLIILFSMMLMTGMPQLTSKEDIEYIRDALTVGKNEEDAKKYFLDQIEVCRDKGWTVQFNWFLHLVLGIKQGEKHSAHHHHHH
Put plainly: PI3K KinaseGlo assay, PI3Kγ. The note with it: 150 nM enzyme, 1 μM ATP, 90 mins, room temperature, read-out: PI3Kg/IC50. As to the method: L-a-phosphatidylinositol (PI), provided as 10 mg/ml solution in methanol, was transferred into a glass tube and dried under nitrogen beam. It was then resuspended in 3% OctylGlucoside (OG) by vortexing and stored at 4° C. The KinaseGlo Luminescent Kinase Assay (Promega, Madison/WI, USA) is a homogeneous HTS method of measuring kinase activity by quantifying the amount of ATP remaining in solution following a kinase reaction.
5 μL of a mix of PI/OG with the PI3K subtype were added (Table 1). Kinase reactions were started by addition of 5 μl of ATP-mix containing in a final volume 10 μL 10 mM TRIS-HCl pH 7.5, 3 mM MgCl2, 50 mM NaCl, 0.05% CHAPS, 1 mM DTT and 1 μM ATP, and occurred at room temperature. […] The standard was used as a reference compound and included in all assay plates in the form of 16 dilution points in duplicate. […]
as §1
The lysate was centrifuged at 45,000 g for 30 minutes, and the supernatant was loaded onto a pre-equilibrated IMAC column (3 mL resin/100 mL lysate). […] Protein was eluted with 20 mM Tris-Cl, pH 7.5, 0.5 M NaCl, 5% glycerol, 250 mM imidazole, 1 mM NaF, 0.1 μg/mL OAA, 5 mM BME, 1× Complete protease inhibitor cocktail—EDTA-free. Pertinent fractions were analyzed by SDS-PAGE and pooled accordingly. The protein was further purified by gel filtration on a Superdex 200 26/60 column equilibrated in 20 mM Tris-Cl, pH 7.5, 0.5 M NaCl, 5% glycerol, 1 mM NaF, 5 mM DTT, 1× Complete protease inhibitor cocktail—EDTA-free. Pertinent fractions were analyzed by SDS-PAGE and pooled accordingly. An equal volume of Dialysis Buffer (20 mM Tris-Cl, pH 7.5, 500 mM NaCl, 50% glycerol, 5 mM NaF, 5 mM DTT) was added to the pool and than dialyzed against Dialysis Buffer two changes (one change overnight). Protein was stored at −20° C.

Setting [1] is: KinaseGlo, 10 nM enzyme, 1 μM ATP, 30 mins, room temperature, read-out: PI3Ka/IC50.
Where [2] appears, read: KinaseGlo, 25 nM enzyme, 1 μM ATP, 30 mins, room temperature, read-out: PI3Kb/IC50.
Where [3] appears, read: KinaseGlo, 10 nM enzyme, 1 μM ATP, 30 mins, room temperature.

T1 sequence (P42336 with tags, fused parts or gaps): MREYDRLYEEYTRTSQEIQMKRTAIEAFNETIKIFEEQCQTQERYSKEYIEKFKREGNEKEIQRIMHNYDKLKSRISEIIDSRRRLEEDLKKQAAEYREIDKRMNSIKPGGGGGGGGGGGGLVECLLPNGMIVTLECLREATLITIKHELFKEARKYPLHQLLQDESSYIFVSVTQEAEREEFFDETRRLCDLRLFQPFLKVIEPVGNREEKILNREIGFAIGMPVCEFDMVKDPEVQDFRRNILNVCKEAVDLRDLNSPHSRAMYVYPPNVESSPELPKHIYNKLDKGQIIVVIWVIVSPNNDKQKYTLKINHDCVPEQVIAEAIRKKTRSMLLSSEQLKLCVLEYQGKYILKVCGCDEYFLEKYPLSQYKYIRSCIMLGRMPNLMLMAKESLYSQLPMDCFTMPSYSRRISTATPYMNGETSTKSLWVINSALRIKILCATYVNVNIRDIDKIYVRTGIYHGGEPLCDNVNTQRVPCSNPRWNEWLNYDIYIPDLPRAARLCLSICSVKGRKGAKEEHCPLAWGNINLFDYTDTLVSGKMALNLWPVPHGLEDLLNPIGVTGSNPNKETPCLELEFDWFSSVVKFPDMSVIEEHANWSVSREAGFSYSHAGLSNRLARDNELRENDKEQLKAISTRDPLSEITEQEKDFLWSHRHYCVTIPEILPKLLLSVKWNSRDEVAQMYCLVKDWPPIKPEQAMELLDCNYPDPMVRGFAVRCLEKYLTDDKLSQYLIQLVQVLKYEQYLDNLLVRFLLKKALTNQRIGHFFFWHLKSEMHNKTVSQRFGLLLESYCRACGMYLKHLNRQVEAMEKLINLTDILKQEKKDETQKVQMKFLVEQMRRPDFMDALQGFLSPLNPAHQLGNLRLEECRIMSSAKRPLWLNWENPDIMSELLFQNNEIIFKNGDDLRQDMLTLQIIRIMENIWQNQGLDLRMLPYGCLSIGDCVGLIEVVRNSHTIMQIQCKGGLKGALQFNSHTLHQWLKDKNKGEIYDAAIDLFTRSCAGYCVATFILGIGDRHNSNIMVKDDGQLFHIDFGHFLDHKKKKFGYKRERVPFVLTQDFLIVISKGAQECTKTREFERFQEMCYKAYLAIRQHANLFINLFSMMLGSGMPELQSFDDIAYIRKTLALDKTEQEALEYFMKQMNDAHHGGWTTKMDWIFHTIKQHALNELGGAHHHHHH
T2 sequence (P42338 with tags, fused parts or gaps): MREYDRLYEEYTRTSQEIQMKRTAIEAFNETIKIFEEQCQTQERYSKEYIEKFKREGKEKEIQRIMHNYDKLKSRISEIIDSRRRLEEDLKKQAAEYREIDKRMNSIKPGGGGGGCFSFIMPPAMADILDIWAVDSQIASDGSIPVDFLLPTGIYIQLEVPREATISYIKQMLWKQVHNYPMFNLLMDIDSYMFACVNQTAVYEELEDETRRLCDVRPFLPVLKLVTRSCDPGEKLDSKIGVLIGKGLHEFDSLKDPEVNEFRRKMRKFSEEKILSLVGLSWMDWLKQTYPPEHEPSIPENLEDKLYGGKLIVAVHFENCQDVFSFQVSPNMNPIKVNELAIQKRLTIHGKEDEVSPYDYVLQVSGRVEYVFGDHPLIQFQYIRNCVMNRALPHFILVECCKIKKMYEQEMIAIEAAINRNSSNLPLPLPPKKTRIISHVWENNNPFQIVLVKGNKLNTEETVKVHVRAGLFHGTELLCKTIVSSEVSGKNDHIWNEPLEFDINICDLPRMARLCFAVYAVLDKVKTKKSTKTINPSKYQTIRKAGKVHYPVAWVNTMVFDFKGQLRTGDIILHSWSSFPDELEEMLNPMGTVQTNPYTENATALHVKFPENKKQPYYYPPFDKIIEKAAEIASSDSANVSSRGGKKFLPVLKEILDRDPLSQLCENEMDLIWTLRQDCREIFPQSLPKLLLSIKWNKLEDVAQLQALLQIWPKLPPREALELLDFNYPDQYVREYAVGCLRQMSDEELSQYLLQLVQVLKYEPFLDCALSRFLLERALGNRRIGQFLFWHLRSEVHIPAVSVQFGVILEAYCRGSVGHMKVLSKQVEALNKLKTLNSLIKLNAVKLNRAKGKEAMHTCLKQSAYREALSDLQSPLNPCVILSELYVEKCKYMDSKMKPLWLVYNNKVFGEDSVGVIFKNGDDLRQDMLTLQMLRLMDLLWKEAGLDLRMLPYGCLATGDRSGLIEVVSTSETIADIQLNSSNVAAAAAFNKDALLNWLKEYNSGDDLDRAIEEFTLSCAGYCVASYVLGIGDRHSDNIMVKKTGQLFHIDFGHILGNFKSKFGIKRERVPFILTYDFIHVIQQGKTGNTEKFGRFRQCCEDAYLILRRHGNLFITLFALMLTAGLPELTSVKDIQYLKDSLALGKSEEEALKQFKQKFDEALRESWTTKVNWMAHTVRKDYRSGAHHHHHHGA

`COc1ccc(C2(c3cc(-c4sc(NC(=O)N5CCC[C@H]5C(N)=O)nc4C)ccn3)CC2)cc1` [Example 29, (S)-Pyrrolidine-1,2-dicarboxylic acid 2-amide 1-[(5-{2-[1-(4-methoxy-phenyl)-cyclopropyl]-pyridin-4-yl}-4-methyl-thiazol-2-yl)-amide]]: the IC50 amounted to 56 nM on PI3Kα (setting [1]), 6170 nM on PI3Kβ (setting [2]), 804 nM at PI3Kδ and 684 nM on PI3Kγ.
For `CC(C)(c1cc(-c2cnc(NC(=O)N3CCC[C@H]3C(N)=O)s2)ccn1)C(F)(F)F` [Example 12, (S)-Pyrrolidine-1,2-dicarboxylic acid 2-amide 1-({5-[2-(2,2,2-trifluoro-1,1-dimethyl-ethyl)-pyridin-4-yl]-thiazol-2-yl}-amide)], the IC50 against PI3Kα turned out to be 10 nM; on PI3Kβ (setting [2]), 3870 nM; on PI3Kδ, 197 nM; on PI3Kγ, 352 nM.
On to `Cc1nc(NC(=O)N2CCC[C@H]2C(N)=O)sc1-c1ccnc(C2(C#N)CC2)c1` [Example 18, (S)-Pyrrolidine-1,2-dicarboxylic acid 2-amide 1-({5-[2-(1-cyano-cyclopropyl)pyridin-4-yl]-4-methyl-thiazol-2-yl}-amide)], for which the PI3Ka/IC50 at PI3Kα (setting [3]) was found to be 0.019 umol I-1. For the same compound, the IC50 at PI3Kβ (setting [2]) was 4140 nM; at PI3Kδ it was 538 nM; at PI3Kγ, 612 nM.
For the compound `NC(=O)[C@@H]1CCCN1C(=O)Nc1ncc(-c2ccnc(C3(C(F)(F)F)CCC3)c2)s1` [Example 13, (S)-Pyrrolidine-1,2-dicarboxylic acid 2-amide 1-({5-[2-(1-trifluoromethyl-cyclobutyl)-pyridin-4-yl]-thiazol-2-yl}-amide)], the IC50 was 4490 nM on PI3Kβ (setting [2]), 161 nM at PI3Kδ and 183 nM at PI3Kγ.
Turning to `CC(C)(c1cc(-c2sc(NC(=O)N3CCC[C@H]3C(N)=O)nc2Cl)ccn1)C(F)(F)F` [Example 37, (S)-Pyrrolidine-1,2-dicarboxylic acid 2-amide 1-({4-chloro-5-[2-(2,2,2-trifluoro-1,1-dimethyl-ethyl)-pyridin-4-yl]-thiazol-2-yl}-amide)], at PI3Kα (setting [3]), the PI3Ka/IC50 was 0.039 umol I-1. Further, the IC50 at PI3Kβ (setting [2]) came out at 5520 nM; at PI3Kδ, 386 nM; at PI3Kγ it was 4450 nM.
With `Cc1nc(NC(=O)N2CCC[C@H]2C(N)=O)sc1-c1ccnc(-c2ccccc2F)n1` [Example 51, (S)-Pyrrolidine-1,2-dicarboxylic acid 2-amide 1-({5-[2-(2-fluoro-phenyl)pyrimidin-4-yl]-4-methyl-thiazol-2-yl}-amide)], the IC50 came out at 113 nM at PI3Kα (setting [1]), 8840 nM at PI3Kβ (setting [2]), 690 nM on PI3Kδ and 3480 nM on PI3Kγ.
The corresponding values for `Cc1nc(NC(=O)N2CCC[C@H]2C(N)=O)sc1-c1ccnc(Cc2c(Cl)cccc2Cl)n1` [Example 47, (S)-Pyrrolidine-1,2-dicarboxylic acid 2-amide 1-({5-[2-(2,6-dichloro-benzyl)pyrimidin-4-yl]-4-methyl-thiazol-2-yl}-amide)] are 94 nM, 2900 nM, 156 nM and 1870 nM.
On to `COc1ccc(C(C)(C)c2cc(-c3sc(NC(=O)N4CCC[C@H]4C(N)=O)nc3C)ccn2)cc1` [Example 27, (S)-Pyrrolidine-1,2-dicarboxylic acid 2-amide 1-[(5-{2-[1-(4-methoxy-phenyl)-1-methyl-ethyl]-pyridin-4-yl}-4-methyl-thiazol-2-yl)-amide]], for which the IC50 was 81 nM at PI3Kα (setting [1]), 5200 nM on PI3Kβ (setting [2]), 271 nM on PI3Kδ and 1560 nM on PI3Kγ.
With `CCN(CC)c1nccc(-c2sc(NC(=O)N3CCC[C@H]3C(N)=O)nc2C)n1` [Example 63, (S)-Pyrrolidine-1,2-dicarboxylic acid 2-amide 1-{[5-(2-diethylamino-pyrimidin-4-yl)-4-methyl-thiazol-2-yl]-amide}], the PI3Ka/IC50 on PI3Kα (setting [3]) came to 0.016 umol I-1. Further, the IC50 at PI3Kβ (setting [2]) was determined as 1200 nM; at PI3Kδ, 98 nM; at PI3Kγ, 790 nM.
For the compound `Cc1nc(NC(=O)N2CCC[C@H]2C(N)=O)sc1-c1ccnc(C2(C)CC2)n1` [Example 42, (S)-Pyrrolidine-1,2-dicarboxylic acid 2-amide 1-({4-methyl-5-[2-(1-methylcyclopropyl)-pyrimidin-4-yl]-thiazol-2-yl}-amide)], the IC50 on PI3Kβ was determined as 3170 nM; at PI3Kδ, 289 nM; on PI3Kγ, 858 nM.
In the case of `Cc1nc(NC(=O)N2CCC[C@H]2C(N)=O)sc1-c1ccnc(C(C)(C)C)c1` [Example 1, (S)-Pyrrolidine-1,2-dicarboxylic acid 2-amide 1-{[5-(2-tert-butyl-pyridin-4-yl)-4-methyl-thiazol-2-yl]-amide}], the values for the IC50 on PI3Kβ (setting [2]), on PI3Kδ and at PI3Kγ were 4430 nM, 971 nM and 680 nM, respectively.
